# In PMC6982996, “Discovery of [1,2,4]Triazole Derivatives as New Metallo-β-Lactamase Inhibitors” (Molecules, 2019):
# Key:
# Format in all cases: biochemical
# NDM-1 = molecular target: T1, NDM-1 (Klebsiella pneumoniae, UniProt C7C422); assay: NDM-1 inhibition assay (FC5 fluorogenic substrate); settings: mean ± SD (n = 3)
# T1 construct: Li's Laboratory, Sichuan University (collaborator, a gift and not a purchase)
# Method: (§1) Then, we tested all the target compounds against other B1 MBL enzymes, including NDM-1, IMP-1, VIM-1, and VIM-5 (Table 1); all the assay conditions (including enzyme/substrate concentrations) are the same as that previously used. […]. […].
# (§2) All the target compounds were freshly prepared in 100 mM DMSO stock solutions. All the MBL and SBL enzymes used in this study were obtained from our collaborator, Li’s Laboratory in Sichuan University. Each compound was initially evaluated for inhibitory activity to MBL and SBL enzymes at 100 and 10 μM, by preincubation with the appropriate amount of enzymes in the assay buffer for 10 min, followed by adding the substrate FC5 to initiate the reactions, and monitoring the fluorescence at λex of 380 nm and λem of 460 nm. The IC50 values for the compounds (with 10 different concentrations in threefold dilution) were further determined. All determinations were tested in triplicate. The IC50 values were obtained from the plot of activity versus inhibitor concentration by using the GraphPad Prism software.
# VIM-1 = molecular target: T2, VIM-1 (Pseudomonas aeruginosa, UniProt A0A0F7KYQ8); assay: VIM-1 inhibition assay (FC5 fluorogenic substrate)
# T2 construct: Li's Laboratory, Sichuan University (collaborator, a gift and not a purchase)
# Method: as §1, §2
# IMP-1 = molecular target: T3, IMP-1 (Serratia marcescens, UniProt P52699); assay: IMP-1 inhibition assay (FC5 fluorogenic substrate); settings: for inhibition at 10 µM / inhibition at 100 µM: mean ± SD (n = 3); for IC50: 10 concentrations in threefold dilution, triplicate, read-out: IC50 against IMP-1
# T3 construct: Li's Laboratory, Sichuan University (collaborator, a gift and not a purchase)
# T3 sequence (P52699 19-246 limits assumed): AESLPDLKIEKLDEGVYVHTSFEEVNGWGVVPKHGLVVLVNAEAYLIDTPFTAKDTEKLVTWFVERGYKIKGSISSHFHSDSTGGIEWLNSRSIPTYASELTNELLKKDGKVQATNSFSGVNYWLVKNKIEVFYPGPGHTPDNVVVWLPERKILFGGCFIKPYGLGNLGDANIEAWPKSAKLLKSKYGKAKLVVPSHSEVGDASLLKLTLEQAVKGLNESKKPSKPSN
# Method: as §1, §2
# VIM-5 = VIM-5 inhibition assay (FC5 fluorogenic substrate); settings: mean ± SD (n = 3)
# Method: as §1, §2
# VIM-2 = molecular target: T4, VIM-2 (Escherichia coli, UniProt Q5U7L7); assay: VIM-2 inhibition assay (FC5 fluorogenic substrate); settings: for inhibition at 10 µM / inhibition at 100 µM: mean ± SD (n = 3); for IC50: 10 concentrations in threefold dilution, triplicate, read-out: IC50 against VIM-2
# T4 construct: Li's Laboratory, Sichuan University (collaborator, a gift and not a purchase)
# Method: as §2
# T1 sequence (C7C422 29-270, looked up, species assumed): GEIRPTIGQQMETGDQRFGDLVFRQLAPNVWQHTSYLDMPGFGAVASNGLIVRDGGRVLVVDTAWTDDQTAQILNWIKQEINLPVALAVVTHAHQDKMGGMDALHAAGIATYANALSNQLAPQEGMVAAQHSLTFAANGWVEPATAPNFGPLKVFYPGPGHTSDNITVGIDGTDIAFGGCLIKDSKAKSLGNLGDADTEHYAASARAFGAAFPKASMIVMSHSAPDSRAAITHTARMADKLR
Compound,inhibition at 10 µM (NDM-1) [%],inhibition at 100 µM (NDM-1) [%],inhibition at 100 µM (VIM-1; mean ± SD (n = 3)) [%],inhibition at 10 µM (IMP-1) [%],inhibition at 100 µM (IMP-1) [%],inhibition at 10 µM (VIM-2) [%],inhibition at 100 µM (VIM-2) [%],IC50 (VIM-2) [µM],"inhibition at 10 µM (VIM-1; @ 10 μM, mean ± SD (n = 3)) [%]",IC50 (IMP-1) [µM],"IC50 (VIM-1; 10 concentrations in threefold dilution, triplicate, read-out: IC50 against VIM-1) [µM]",Inhibition % VIM-5 (VIM-5; @ 100 μM),Inhibition % VIM-5 (VIM-5; @ 10 μM) [%]
"c1coc(-c2nnc3n2CCCS3)c1 [10a, 3-(Furan-2-yl)-6,7-dihydro-5H-[1,2,4]triazolo[3,4-b][1,3]thiazine]",16,15 ± 1,24 ± 3,6,5 ± 1,22,32 ± 4,,,,,11 ± 1/– %,
"COc1ccccc1-c1nnc2n1CCCS2 [5d, 3-(2-Methoxyphenyl)-6,7-dihydro-5H-[1,2,4]triazolo[3,4-b][1,3]thiazine]",6,15 ± 1,27 ± 2,,,16,39 ± 3,,,,,7 ± 1/– %,
"FC(F)(F)c1cccc(-c2nnc3n2CCCS3)c1 [5i, 3-(3-(Trifluoromethyl)phenyl)-6,7-dihydro-5H-[1,2,4]triazolo[3,4-b][1,3]thiazine]",9,26 ± 1,29 ± 3,11,12 ± 1,35,52 ± 4,> 100,,,,21 ± 2/– %,
"c1ccc(-c2nnc3n2CCCS3)nc1 [5q, 3-(Pyridin-2-yl)-6,7-dihydro-5H-[1,2,4]triazolo[3,4-b][1,3]thiazine]",20,11 ± 1,19 ± 1,3,9 ± 1,26,45 ± 1,,,,,14 ± 1/– %,
"Brc1ccccc1-c1nnc2n1CCCS2 [5c, 3-(2-Bromophenyl)-6,7-dihydro-5H-[1,2,4]triazolo[3,4-b][1,3]thiazine]",17,8 ± 1,19 ± 2,16,15 ± 1,26,43 ± 5,,,,,13 ± 2/– %,
"c1ccc(Cc2nnc3n2CCCS3)cc1 [5r, 3-Benzyl-6,7-dihydro-5H-[1,2,4]triazolo[3,4-b][1,3]thiazine]",9,4 ± 1,25 ± 2,,,6,21 ± 3,,,,,8 ± 1/– %,
"O=C(O)c1ccccc1-c1nnc2n1C(=O)CS2 [compound 15, 2-(5-Oxo-5,6-dihydrothiazolo[2,3-c][1,2,4]triazol-3-yl)benzoic acid]",10,8 ± 1,25 ± 2,19,13 ± 1,18,21 ± 2,,,,,10 ± 2/– %,
"Oc1ccccc1-c1nnc2n1CCCS2 [compound 6, 2-(6,7-Dihydro-5H-[1,2,4]triazolo[3,4-b][1,3]thiazin-3-yl)phenol]",21,26 ± 2,25 ± 3,5,30 ± 3,35,57 ± 5,> 100,,,,10 ± 2/– %,
"Cc1c(-c2nnc3n2CCCS3)cccc1[N+](=O)[O-] [5p, 3-(2-Methyl-3-nitrophenyl)-6,7-dihydro-5H-[1,2,4]triazolo[3,4-b][1,3]thiazine]",22,16 ± 2,19 ± 2,-5,10 ± 1,42,71 ± 6,53.8,,,,15 ± 1/– %,
"c1csc(-c2nnc3n2CCCS3)c1 [10b, 3-(Thiophen-2-yl)-6,7-dihydro-5H-[1,2,4]triazolo[3,4-b][1,3]thiazine]",8,12 ± 2,30 ± 2,27,57 ± 6,16,30 ± 3,,32,> 100,,18 ± 2%,21 ± 2
"Cc1ccccc1-c1nnc2n1CCCS2 [5b, 3-(O-Tolyl)-6,7-dihydro-5H-[1,2,4]triazolo[3,4-b][1,3]thiazine]",27,32 ± 4,21 ± 3,21,25 ± 1,34,45 ± 5,,,,,12 ± 2/– %,

# The next lines start with results.
inhibition at 10 µM (NDM-1) [%],inhibition at 100 µM (NDM-1) [%],inhibition at 100 µM (VIM-1; mean ± SD (n = 3)) [%],inhibition at 10 µM (IMP-1) [%],inhibition at 100 µM (IMP-1) [%],inhibition at 10 µM (VIM-2) [%],inhibition at 100 µM (VIM-2) [%],IC50 (VIM-2) [µM],"inhibition at 10 µM (VIM-1; @ 10 μM, mean ± SD (n = 3)) [%]",IC50 (IMP-1) [µM],"IC50 (VIM-1; 10 concentrations in threefold dilution, triplicate, read-out: IC50 against VIM-1) [µM]",Compound,Inhibition % VIM-5 (VIM-5; @ 100 μM),Inhibition % VIM-5 (VIM-5; @ 10 μM) [%]
10,9 ± 1,27 ± 3,,,7,33 ± 2,,,,,"Ic1cccc(-c2nnc3n2CCCS3)c1 [5h, 3-(3-Iodophenyl)-6,7-dihydro-5H-[1,2,4]triazolo[3,4-b][1,3]thiazine]",−5 ± 2/– %,
29,28 ± 3,29 ± 2,9,4 ± 1,50,80 ± 3,67.2,,,,"Brc1ccc(-c2nnc3n2CCS3)cc1 [5s, 3-(4-Bromophenyl)-5,6-dihydrothiazolo[2,3-c][1,2,4]triazole]",14 ± 2/– %,
3,29 ± 1,29 ± 2,,,17,~50,~179,,,,"c1ccc(-c2nnc3n2CCCS3)cc1 [5a, 3-Phenyl-6,7-dihydro-5H-[1,2,4]triazolo[3,4-b][1,3]thiazine]",1 ± 1/– %,
4,1 ± 1,34 ± 1,,,44,78 ± 5,> 100,,,,"Ic1ccc(-c2nnc3n2CCCS3)cc1 [5m, 3-(4-Iodophenyl)-6,7-dihydro-5H-[1,2,4]triazolo[3,4-b][1,3]thiazine]",2 ± 1/– %,
20,10 ± 2,22 ± 3,4,8 ± 1,15,34 ± 3,,,,,"Fc1cccc(-c2nnc3n2CCCS3)c1 [5e, 3-(3-Fluorophenyl)-6,7-dihydro-5H-[1,2,4]triazolo[3,4-b][1,3]thiazine]",6 ± 1/– %,
9,11 ± 1,27 ± 2,15,63 ± 1,22,23 ± 4,,,> 100,,"CC(C)(C)c1ccc(-c2nnc3n2CCCS3)cc1 [5o, 3-(4-(Tert-butyl)phenyl)-6,7-dihydro-5H-[1,2,4]triazolo[3,4-b][1,3]thiazine]",15 ± 1/– %,
10,7 ± 1,22 ± 3,18,15 ± 2,21,26 ± 2,,,,,"O=C(O)c1ccccc1-c1nnc2n1CCCS2 [compound 14, 2-(6,7-Dihydro-5H-[1,2,4]triazolo[3,4-b][1,3]thiazin-3-yl)benzoic acid]",11 ± 1/– %,
13,23 ± 2,14 ± 2,,,40,75 ± 4,> 100,,,,"CC(=O)Nc1ccc(Nc2ccc(-c3nnc4n3CCCS4)cc2)cc1 [5t, N-(4-((4-(6,7-dihydro-5H-[1,2,4]triazolo[3,4-b][1,3]thiazin-3-yl)phenyl)amino)phenyl)acetamide]",31 ± 2/– %,
22,17 ± 1,32 ± 1,,,16,42 ± 2,,,,,"Clc1cccc(-c2nnc3n2CCCS3)c1 [5f, 3-(3-Chlorophenyl)-6,7-dihydro-5H-[1,2,4]triazolo[3,4-b][1,3]thiazine]",−9 ± 2/– %,
3,8 ± 1,61 ± 3,,,43,82 ± 4,53.2,,,> 100,"FC(F)(F)c1ccc(-c2nnc3n2CCCS3)cc1 [5n, 3-(4-(Trifluoromethyl)phenyl)-6,7-dihydro-5H-[1,2,4]triazolo[3,4-b][1,3]thiazine]",−10 ± 2/– %,
17,14 ± 1,28 ± 2,5,7 ± 1,58,84 ± 6,47.2,,,,"Clc1ccc(-c2nnc3n2CCCS3)cc1 [5k, 3-(4-Chlorophenyl)-6,7-dihydro-5H-[1,2,4]triazolo[3,4-b][1,3]thiazine]",12 ± 1/– %,
